Reference: ChEMBL document CHEMBL4311943, “3-[(1S,2S,3R)-2,3-Difluoro-1-hydroxy-7-methylsulfonylindan-4-yl]oxy-5-fluorobenzonitrile (PT2977), a Hypoxia-Inducible Factor 2α (HIF-2α) Inhibitor for the Treatment of Clear Cell Renal Cell Carcinoma” (J Med Chem, 2019)
Activity calls are given as the source filed them. No cut-off for these calls is given here.

Key:
[1] = molecular target: Vasopressin V2 receptor (Homo sapiens) (UniProt P30518); test: Activity at human V2 receptor at 10 uM
[2] = molecular target: CDK7/Cyclin H/MNAT1 (Homo sapiens) (UniProt P51946+P50613+P51948); test: Activity at human CDK7/cyclinH/MAT1 at 10 uM; type: protein-complex assay
[3] = molecular target: Hydroxycarboxylic acid receptor 2 (Homo sapiens) (UniProt Q8TDS4); test: Activity at human GPR109A receptor at 10 uM
[4] = molecular target: Cannabinoid receptor 1 (Homo sapiens) (UniProt P21554); test: Activity at human CB1 receptor at 10 uM
[5] = molecular target: Prolactin-releasing peptide receptor (Homo sapiens) (UniProt P49683); test: Activity at human PRP receptor at 10 uM
Chain of Prolactin-releasing peptide receptor (Homo sapiens) (P49683 whole entry): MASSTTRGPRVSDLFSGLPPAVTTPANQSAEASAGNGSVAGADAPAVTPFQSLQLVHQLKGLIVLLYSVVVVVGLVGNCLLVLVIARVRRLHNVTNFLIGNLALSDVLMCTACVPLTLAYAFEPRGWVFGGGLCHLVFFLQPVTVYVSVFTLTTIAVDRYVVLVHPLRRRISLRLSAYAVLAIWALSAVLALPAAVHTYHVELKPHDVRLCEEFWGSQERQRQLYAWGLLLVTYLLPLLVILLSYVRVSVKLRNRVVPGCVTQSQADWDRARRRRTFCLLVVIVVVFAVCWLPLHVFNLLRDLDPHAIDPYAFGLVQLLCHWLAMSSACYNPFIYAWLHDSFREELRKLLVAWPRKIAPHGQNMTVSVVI

[6] = molecular target: Alpha-2A adrenergic receptor (Homo sapiens) (UniProt P08913); test: Activity at human alpha2A receptor at 10 uM
Chain of Alpha-2A adrenergic receptor (Homo sapiens) (P08913 whole entry): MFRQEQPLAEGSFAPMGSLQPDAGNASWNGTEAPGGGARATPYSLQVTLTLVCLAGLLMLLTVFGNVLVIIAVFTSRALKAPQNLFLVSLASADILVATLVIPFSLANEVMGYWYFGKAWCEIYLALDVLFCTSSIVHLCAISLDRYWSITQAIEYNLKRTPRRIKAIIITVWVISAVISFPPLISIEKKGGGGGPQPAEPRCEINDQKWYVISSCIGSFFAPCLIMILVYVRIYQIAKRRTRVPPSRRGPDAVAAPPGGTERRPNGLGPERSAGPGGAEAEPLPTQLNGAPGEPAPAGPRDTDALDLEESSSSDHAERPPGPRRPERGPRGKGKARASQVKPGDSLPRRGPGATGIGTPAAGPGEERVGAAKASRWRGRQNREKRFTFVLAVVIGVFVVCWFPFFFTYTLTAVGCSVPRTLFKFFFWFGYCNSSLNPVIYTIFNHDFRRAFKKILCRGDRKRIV

[7] = molecular target: Cytochrome P450 3A4 (Homo sapiens, UniProt P08684); test: Inhibition of CYP3A4 in human liver microsomes up to 50 uM using testosterone as substrate measured after 10 mins in presence of NADPH by LC-MS/MS analysis; type: ADME
Chain of Cytochrome P450 3A4 (P08684 whole entry): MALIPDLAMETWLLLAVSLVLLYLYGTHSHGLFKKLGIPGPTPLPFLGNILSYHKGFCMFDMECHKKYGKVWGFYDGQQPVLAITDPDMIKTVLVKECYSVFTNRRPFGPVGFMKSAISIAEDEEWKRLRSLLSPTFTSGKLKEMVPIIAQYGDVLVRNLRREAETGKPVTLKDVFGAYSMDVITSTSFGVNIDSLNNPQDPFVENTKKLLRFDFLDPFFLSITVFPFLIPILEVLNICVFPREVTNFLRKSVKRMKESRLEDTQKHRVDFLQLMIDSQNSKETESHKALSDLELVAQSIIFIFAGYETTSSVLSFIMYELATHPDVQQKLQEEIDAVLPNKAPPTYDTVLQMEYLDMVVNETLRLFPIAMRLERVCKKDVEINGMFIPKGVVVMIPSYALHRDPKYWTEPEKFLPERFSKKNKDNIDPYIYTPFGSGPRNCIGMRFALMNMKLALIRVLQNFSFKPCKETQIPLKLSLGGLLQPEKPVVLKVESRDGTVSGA

[8] = molecular target: Alpha-1D adrenergic receptor (Homo sapiens) (UniProt P25100); test: Activity at human alpha1D receptor at 10 uM
[9] = molecular target: Cytochrome P450 2C19 (Homo sapiens, UniProt P33261); test: Inhibition of CYP2C19 in human liver microsomes up to 50 uM using S-mephenytoin as substrate measured after 20 mins in presence of NADPH by LC-MS/MS analysis; type: ADME
[10] = AUClast in patient with advanced solid tumor at 40 mg, po administered once daily measured on day 15; type: ADME, organism-based; design: dose 40 mg, time 0 - last, route oral; conditions: human, in vivo
[11] = molecular target: A-type voltage-gated potassium channel KCND3 (Homo sapiens, UniProt Q9UK17); test: Activity at human Kv4.3 at 10 uM
[12] = molecular target: Motilin receptor (Homo sapiens) (UniProt O43193); test: Activity at human MTLR receptor at 10 uM
[13] = molecular target: RAC-beta serine/threonine-protein kinase (Homo sapiens) (UniProt P31751); test: Activity at human PKBbeta at 10 uM
Chain of RAC-beta serine/threonine-protein kinase (Homo sapiens) (P31751 whole entry): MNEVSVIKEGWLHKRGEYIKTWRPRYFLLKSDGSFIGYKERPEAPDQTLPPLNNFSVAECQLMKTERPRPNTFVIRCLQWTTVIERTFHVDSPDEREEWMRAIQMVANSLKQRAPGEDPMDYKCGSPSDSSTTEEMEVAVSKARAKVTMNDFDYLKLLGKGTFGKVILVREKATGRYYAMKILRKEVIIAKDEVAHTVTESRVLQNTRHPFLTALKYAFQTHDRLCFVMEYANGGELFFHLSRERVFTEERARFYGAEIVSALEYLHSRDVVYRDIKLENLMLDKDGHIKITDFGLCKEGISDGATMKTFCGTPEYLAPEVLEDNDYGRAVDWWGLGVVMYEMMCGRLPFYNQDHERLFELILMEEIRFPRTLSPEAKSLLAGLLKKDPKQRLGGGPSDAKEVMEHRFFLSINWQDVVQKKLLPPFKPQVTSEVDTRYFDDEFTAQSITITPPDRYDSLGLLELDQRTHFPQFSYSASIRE

[14] = molecular target: CX3C chemokine receptor 1 (Homo sapiens) (UniProt P49238); test: Activity at human CX3CR1 receptor at 10 uM
[15] = AUClast in patient with advanced solid tumor at 80 mg, po administered once daily measured on day 15; type: ADME, organism-based; design: dose 80 mg, route oral, time 0 - last; conditions: human, in vivo
[16] = Clearance in Sprague-Dawley rat at 1 mg/kg, iv by UPLC-MS analysis; type: ADME, organism-based; conditions: in vivo
[17] = molecular target: Prokineticin receptor 1 (Homo sapiens) (UniProt Q8TCW9); test: Activity at human PK1 receptor at 10 uM
[18] = molecular target: C-C chemokine receptor type 1 (Homo sapiens) (UniProt P32246); test: Activity at human CCR1 receptor at 10 uM
Chain of C-C chemokine receptor type 1 (Homo sapiens) (P32246 whole entry): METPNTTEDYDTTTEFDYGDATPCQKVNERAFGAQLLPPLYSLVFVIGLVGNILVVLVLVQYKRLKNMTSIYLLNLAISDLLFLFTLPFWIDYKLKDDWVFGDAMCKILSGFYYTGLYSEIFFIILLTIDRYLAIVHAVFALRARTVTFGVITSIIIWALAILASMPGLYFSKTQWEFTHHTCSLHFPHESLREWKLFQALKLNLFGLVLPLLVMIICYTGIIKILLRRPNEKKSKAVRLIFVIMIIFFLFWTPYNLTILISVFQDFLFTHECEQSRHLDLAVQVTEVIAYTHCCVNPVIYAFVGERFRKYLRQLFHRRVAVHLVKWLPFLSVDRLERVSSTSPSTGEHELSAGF

[19] = molecular target: Glycogen synthase kinase-3 beta (Homo sapiens) (UniProt P49841); test: Activity at human GSK3beta at 10 uM
[20] = molecular target: Vasoactive intestinal polypeptide receptor 2 (Homo sapiens) (UniProt P41587); test: Activity at human VPAC2 at 10 uM
[21] = Cmin in patient with advanced solid tumor at 120 mg, po administered once daily measured on day 15 measured after 24 hrs; type: ADME, organism-based; conditions: human, in vivo, read-out: Cmin
[22] = Half life in patient with advanced solid tumor at 120 mg, po administered once daily measured on day 15; type: ADME, organism-based; conditions: human, in vivo
[23] = molecular target: Calcium/calmodulin-dependent protein kinase type II subunit beta (Homo sapiens) (UniProt Q13554); test: Activity at human CAMK2B at 10 uM
[24] = molecular target: Histamine H2 receptor (Homo sapiens) (UniProt P25021); test: Activity at human H2 receptor at 10 uM
[25] = molecular target: Prostaglandin F2-alpha receptor (Homo sapiens) (UniProt P43088); test: Activity at human Prostanoid FP receptor at 10 uM
[26] = molecular target: Protein kinase C alpha type (Homo sapiens) (UniProt P17252); test: Activity at human PKCalpha at 10 uM
[27] = Drug level in plasma of SCID Beige mouse xenografted with human 786-O cells at 1 mg/kg, po administered twice daily via gavage for 3 days measured 12 hrs post-last dose; type: ADME, organism-based
[28] = molecular target: Ribosomal protein S6 kinase beta-1 (Homo sapiens) (UniProt P23443); test: Activity at human p70S6K at 10 uM
Chain of Ribosomal protein S6 kinase beta-1 (Homo sapiens) (P23443 whole entry, looked up): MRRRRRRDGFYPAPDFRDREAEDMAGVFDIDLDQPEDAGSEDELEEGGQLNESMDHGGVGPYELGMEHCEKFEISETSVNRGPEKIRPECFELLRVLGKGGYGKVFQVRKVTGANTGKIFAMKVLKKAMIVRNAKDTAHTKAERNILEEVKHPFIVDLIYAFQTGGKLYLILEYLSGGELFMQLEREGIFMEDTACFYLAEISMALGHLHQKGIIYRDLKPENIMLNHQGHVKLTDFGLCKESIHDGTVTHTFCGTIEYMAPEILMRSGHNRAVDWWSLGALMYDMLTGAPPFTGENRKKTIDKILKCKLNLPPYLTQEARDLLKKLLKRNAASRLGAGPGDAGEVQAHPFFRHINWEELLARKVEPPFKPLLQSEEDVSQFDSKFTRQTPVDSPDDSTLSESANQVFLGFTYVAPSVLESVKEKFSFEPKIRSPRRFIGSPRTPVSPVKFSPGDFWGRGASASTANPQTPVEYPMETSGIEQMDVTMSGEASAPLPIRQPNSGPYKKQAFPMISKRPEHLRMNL

[29] = Dose normalized AUClast in CD-1 mouse at 10 mg/kg, po administered via gavage by UPLC-MS analysis; type: ADME, organism-based; conditions: in vivo
[30] = molecular target: Cyclin-dependent kinase 5/CDK5 activator 1 (Homo sapiens) (UniProt Q00535+Q15078); test: Activity at human CDK5/p35 at 10 uM; type: protein-complex assay
[31] = molecular target: Protein kinase C iota type (Homo sapiens) (UniProt P41743); test: Activity at human PKCiota at 10 uM
Chain of Protein kinase C iota type (Homo sapiens) (P41743 whole entry): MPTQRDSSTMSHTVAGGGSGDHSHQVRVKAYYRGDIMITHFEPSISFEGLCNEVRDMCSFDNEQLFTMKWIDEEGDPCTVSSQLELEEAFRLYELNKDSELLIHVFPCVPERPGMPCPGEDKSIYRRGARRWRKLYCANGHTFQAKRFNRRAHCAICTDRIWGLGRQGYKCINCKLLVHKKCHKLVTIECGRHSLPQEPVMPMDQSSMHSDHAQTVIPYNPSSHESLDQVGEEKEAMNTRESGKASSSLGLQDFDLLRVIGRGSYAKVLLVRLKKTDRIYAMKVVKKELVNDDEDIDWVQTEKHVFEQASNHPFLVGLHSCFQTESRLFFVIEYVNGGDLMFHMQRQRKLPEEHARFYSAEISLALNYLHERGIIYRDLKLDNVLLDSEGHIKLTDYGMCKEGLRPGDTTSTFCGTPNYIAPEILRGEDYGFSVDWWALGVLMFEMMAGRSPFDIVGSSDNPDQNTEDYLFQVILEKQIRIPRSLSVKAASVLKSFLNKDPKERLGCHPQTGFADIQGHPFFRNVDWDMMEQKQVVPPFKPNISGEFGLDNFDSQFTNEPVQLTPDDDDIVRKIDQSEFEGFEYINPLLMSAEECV

[32] = molecular target: Gonadotropin-releasing hormone receptor (Homo sapiens) (UniProt P30968); test: Activity at human GNRH at 10 uM
[33] = AUClast in patient with advanced solid tumor at 20 mg, po administered once daily measured on day 15; type: ADME, organism-based; design: dose 20 mg, route oral, time 0 - last; conditions: human, in vivo
[34] = molecular target: Cytochrome P450 2D6 (Homo sapiens, UniProt P10635); test: Inhibition of CYP2D6 in human liver microsomes up to 50 uM using dextromethorphan as substrate measured after 10 mins in presence of NADPH by LC-MS/MS analysis; type: ADME
[35] = Half life in monkey at 1 mg/kg, iv by UPLC-MS analysis; type: ADME, organism-based, Macaca mulatta; conditions: rhesus monkey, in vivo
[36] = Plasma concentration in patient with advanced solid tumor at 20 mg, po administered once daily measured on day 15 after 24 hrs; type: ADME, organism-based; conditions: human
[37] = molecular target: Oxytocin receptor (Homo sapiens) (UniProt P30559); test: Activity at human oxytocin receptor at 10 uM
[38] = molecular target: Mu-type opioid receptor (Homo sapiens) (UniProt P35372); test: Activity at human mu opioid receptor at 10 uM
Chain of Mu-type opioid receptor (Homo sapiens) (P35372 whole entry): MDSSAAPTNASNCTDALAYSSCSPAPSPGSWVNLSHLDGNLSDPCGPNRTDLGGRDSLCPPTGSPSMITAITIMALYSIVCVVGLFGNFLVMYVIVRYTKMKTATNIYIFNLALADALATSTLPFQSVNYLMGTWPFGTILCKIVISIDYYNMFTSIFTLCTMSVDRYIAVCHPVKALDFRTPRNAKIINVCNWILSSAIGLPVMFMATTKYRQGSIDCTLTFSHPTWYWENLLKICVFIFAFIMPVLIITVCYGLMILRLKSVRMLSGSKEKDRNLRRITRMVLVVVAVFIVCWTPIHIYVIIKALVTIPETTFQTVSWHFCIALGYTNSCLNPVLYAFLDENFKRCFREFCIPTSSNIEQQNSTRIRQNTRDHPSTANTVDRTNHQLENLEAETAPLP

[39] = molecular target: Platelet-activating factor receptor (Homo sapiens) (UniProt P25105); test: Activity at human PAF receptor at 10 uM
Chain of Platelet-activating factor receptor (Homo sapiens) (P25105 whole entry): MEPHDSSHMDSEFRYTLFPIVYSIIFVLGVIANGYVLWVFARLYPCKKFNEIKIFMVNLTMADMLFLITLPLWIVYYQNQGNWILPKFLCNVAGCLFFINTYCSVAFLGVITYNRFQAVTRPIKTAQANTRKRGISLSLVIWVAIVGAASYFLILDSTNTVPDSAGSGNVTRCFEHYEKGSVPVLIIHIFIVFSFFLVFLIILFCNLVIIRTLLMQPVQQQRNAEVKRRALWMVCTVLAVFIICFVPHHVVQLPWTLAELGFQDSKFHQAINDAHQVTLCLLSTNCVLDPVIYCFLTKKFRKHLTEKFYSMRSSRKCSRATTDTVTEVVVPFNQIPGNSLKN

[40] = molecular target: Tyrosine-protein kinase ABL1 (Homo sapiens) (UniProt P00519); test: Activity at human Abl at 10 uM
[41] = molecular target: 5-hydroxytryptamine receptor 2C (Homo sapiens) (UniProt P28335); test: Activity at human 5-HT2C receptor at 10 uM
[42] = Half life in patient with advanced solid tumor at 240 mg, po administered once daily measured on day 15; type: ADME, organism-based; conditions: human, in vivo
[43] = molecular target: Prostacyclin receptor (Homo sapiens) (UniProt P43119); test: Activity at human Prostanoid IP1 receptor at 10 uM; type: functional
[44] = molecular target: Histamine H3 receptor (Homo sapiens) (UniProt Q9Y5N1); test: Activity at human H3 receptor at 10 uM

Activity [1]: inactive
Activity [2]: inactive
Activity [3]: inactive
Activity [4]: inactive
Activity [5]: inactive
Activity [6]: inactive
inhibition (INH) [7]: Not Active
Activity [8]: inactive
inhibition (INH) [9]: Not Active
AUC(0-t) [10]: 7100 ng·h/mL
Activity [11]: Not Active
Activity [12]: inactive
Activity [13]: inactive
Activity [14]: inactive
AUC(0-t) [15]: 17500 ng·h/mL
clearance [16]: 19 mL/min/kg
Activity [17]: inactive
Activity [18]: inactive
Activity [19]: inactive
Activity [20]: inactive
concentration at 24 h [21]: 500 ng/mL
half-life [22]: 20.9 h
Activity [23]: inactive
Activity [24]: inactive
Activity [25]: inactive
Activity [26]: inactive
concentration at 12 h [27]: 27 ng/mL
Activity [28]: inactive
AUClast/dose [29]: 37 µM·h
Activity [30]: inactive
Activity [31]: inactive
Activity [32]: inactive
AUC(0-t) [33]: 2100 ng·h/mL
inhibition (INH) [34]: Not Active
half-life [35]: 9.2 h
concentration at 24 h [36]: 60 ng/mL
Activity [37]: inactive
Activity [38]: inactive
Activity [39]: inactive
Activity [40]: inactive
Activity [41]: inactive
half-life [42]: 14.1 h
Activity [43]: inactive
Activity [44]: inactive
Structure (SMILES): CS(=O)(=O)c1ccc(Oc2cc(F)cc(C#N)c2)c2c1[C@H](O)[C@H](F)[C@@H]2F [BELZUTIFAN]
